Activity calls are given as the source filed them. The rule behind the calls is not given here.
Tests used:
[1] = Antitumor activity against mouse AKATOL cells implanted in mouse assessed as tumor growth inhibition at 40 mg/kg, ip dosed daily for 5 days measured 1 day after treatment termination; type: functional; conditions: route intraperitoneal, read-out: TGI
NCI-H322M = assay: Growth inhibition of human NCI-H322M cells; type: functional
[2] = Growth inhibition of human BT549 cells; type: functional
NCI60 = assay: Cytotoxicity against human NCI60 cells assessed as cell growth at 10 uM; type: functional
[3] = Growth inhibition of human RPMI8226 cells; type: functional, RPMI-8226
SK-MEL-28 = assay: Growth inhibition of human SK-MEL-28 cells; type: functional
SR = assay: Growth inhibition of human SR cells; type: functional
[4] = Antitumor activity against mouse CA-755 cells implanted in mouse assessed as tumor growth inhibition at 40 mg/kg, ip dosed daily for 5 days measured 12 days after treatment termination; type: functional; conditions: CA-755, ip, route intraperitoneal, read-out: TGI
M14 = assay: Growth inhibition of human M14 cells; type: functional
MDA-MB-435 = assay: Growth inhibition of human MDA-MB-435 cells; type: functional
SN12C = assay: Growth inhibition of human SN12C cells; type: functional
[5] = Growth inhibition of human EKVX cells; type: functional
[6] = Growth inhibition of human UACC257 cells; type: functional
[7] = Antitumor activity against mouse CA-755 cells implanted in mouse assessed as tumor growth inhibition at 40 mg/kg, ip dosed daily for 5 days measured 5 days after treatment termination; type: functional; conditions: CA-755, ip, 120 h, route intraperitoneal, read-out: TGI
Mus musculus [8] = assay: Toxicity in mouse P388 cells implanted mouse assessed as mean spleen weight at 20 mg/kg, ip dosed daily for 5 days administered 24 hrs after tumor implantation; type: organism-based; parameters: dose 20 mg/kg, route intraperitoneal; conditions: in vivo
[9] = Growth inhibition of human UACC62 cells; type: functional
U-251 = assay: Growth inhibition of human U251 cells; type: functional
CCRF-CEM = assay: Growth inhibition of human CCRF-CEM cells; type: functional
NCI-H460 = assay: Growth inhibition of human NCI-H460 cells; type: functional
[10] = Antitumor activity against mouse AKATOL cells implanted in mouse assessed as tumor growth inhibition at 40 mg/kg, ip dosed daily for 5 days measured 12 days after treatment termination; type: functional; conditions: route intraperitoneal, read-out: TGI
A498 = assay: Growth inhibition of human A498 cells; type: functional
Mus musculus [11] = assay: Toxicity in mouse Ehrlich carcinoma cells implanted mouse assessed as mean spleen weight at 50 mg/kg, ip dosed daily for 5 days administered 48 hrs after tumor implantation; type: organism-based; parameters: dose 50 mg/kg, route intraperitoneal; conditions: in vivo
Malme-3M = assay: Growth inhibition of human MALME-3M cells; type: functional
[12] = Antitumor activity against mouse AKATOL cells implanted in mouse assessed as tumor growth inhibition at 40 mg/kg, ip dosed daily for 5 days measured 8 to 9 days after treatment termination; type: functional; conditions: route intraperitoneal, read-out: TGI
[13] = Growth inhibition of human HCC2998 cells; type: functional
NCI-H226 = assay: Growth inhibition of human NCI-H226 cells; type: functional
SW-620 = assay: Growth inhibition of human SW620 cells; type: functional
P388 = assay: Antitumor activity against mouse P388 cells implanted in mouse assessed as increase in life span at 10 mg/kg, ip dosed daily for 5 days administered 24 hrs after tumor implantation; type: functional; conditions: route intraperitoneal
A549 = assay: Growth inhibition of human A549/ATCC cells; type: functional
[14] = Antitumor activity against mouse CA-755 cells implanted in mouse assessed as tumor growth inhibition at 40 mg/kg, ip dosed daily for 5 days measured 8 to 9 days after treatment termination; type: functional; conditions: CA-755, ip, route intraperitoneal, read-out: TGI
SNB-75 = assay: Growth inhibition of human SNB75 cells; type: functional
SNB-19 = assay: Growth inhibition of human SNB19 cells; type: functional
Mus musculus [15] = assay: Toxicity in mouse P388 cells implanted mouse assessed as mean ascites volume at 60 mg/kg, ip dosed daily for 5 days administered 24 hrs after tumor implantation; type: organism-based; parameters: dose 60 mg/kg, route intraperitoneal; conditions: in vivo
SK-OV-3 = assay: Growth inhibition of human SKOV3 cells; type: functional
[16] = system: Lewis lung carcinoma cell line; assay: Antitumor activity against mouse LLC cells implanted in mouse assessed as tumor growth inhibition at 40 mg/kg, ip dosed daily for 5 days measured 16 days after treatment termination; type: functional; conditions: route intraperitoneal, read-out: TGI
ACHN = assay: Growth inhibition of human ACHN cells; type: functional
HT-29 = assay: Growth inhibition of human HT-29 cells; type: functional
[17] = Growth inhibition of human COLO205 cells; type: functional
IGROV-1 = assay: Growth inhibition of human IGROV1 cells; type: functional
NCI-H23 = assay: Growth inhibition of human NCI-H23 cells; type: functional
Mus musculus [18] = assay: Toxicity in mouse P388 cells implanted mouse assessed as mean ascites volume at 10 mg/kg, ip dosed daily for 5 days administered 24 hrs after tumor implantation; type: organism-based; parameters: dose 10 mg/kg, route intraperitoneal; conditions: in vivo
[19] = read-out: pLC50 (the source's name) (converted)

COC(=O)[C@]1(C)CCC[C@]2(C)[C@H]3C[C@H]4C(C(C)C)=C[C@]3(CC[C@H]21)[C@@H]1/C(=N/O)CC/C(=N\O)[C@@H]14
inhibition in vivo at 40 mg/kg [1]: 57% | GI50 (NCI-H322M): 2.69 µM | CC50 (NCI-H322M; [19]): 20.9 µM | TGI (NCI-H322M; read-out: pTGI (converted)): 6.17 µM | GI50 ([2]; BT-549): 3.55 µM | CC50 ([2]; BT-549, read-out: pLC50 (the source's name) (converted)): 36.3 µM | TGI ([2]; BT-549, read-out: pTGI (converted)): 11.2 µM | Activity (NCI60): Active | GI50 ([3]; RPMI-8226): 2.09 µM | CC50 ([3]; RPMI-8226, read-out: pLC50 (converted)): > 100 µM | TGI ([3]; RPMI-8226, read-out: pTGI (converted)): 4.79 µM | GI50 (SK-MEL-28): 9.33 µM | CC50 (SK-MEL-28; [19]): 53.7 µM | TGI (SK-MEL-28; read-out: pTGI (converted)): 22.9 µM | GI50 (SR): 2 µM | CC50 (SR; [19]): 25.1 µM | TGI (SR; read-out: pTGI (converted)): 4.79 µM | inhibition in vivo at 40 mg/kg [4]: 35% | GI50 (M14): 5.25 µM | CC50 (M14; [19]): 55 µM | TGI (M14; read-out: pTGI (converted)): 18.6 µM | GI50 (MDA-MB-435): 4.9 µM | CC50 (MDA-MB-435; [19]): 95.5 µM | TGI (MDA-MB-435; read-out: pTGI (converted)): 23.4 µM | GI50 (SN12C): 1.86 µM | CC50 (SN12C; [19]): 8.13 µM | TGI (SN12C; read-out: pTGI (converted)): 3.89 µM | GI50 [5]: 3.72 µM | CC50 [5, 19]: 79.4 µM | TGI ([5]; read-out: pTGI (converted)): 18.2 µM | GI50 ([6]; UACC-257): 3.63 µM | CC50 ([6]; UACC-257, read-out: pLC50 (the source's name) (converted)): 38.9 µM | TGI ([6]; UACC-257, read-out: pTGI (converted)): 12 µM | inhibition in vivo at 40 mg/kg [7]: 72% | Activity (Mus musculus [8]): 101 mg | GI50 ([9]; UACC-62): 4.68 µM | CC50 ([9]; UACC-62, read-out: pLC50 (the source's name) (converted)): 67.6 µM | TGI ([9]; UACC-62, read-out: pTGI (converted)): 22.4 µM | GI50 (U-251): 4.07 µM | CC50 (U-251; [19]): 39.8 µM | TGI (U-251; read-out: pTGI (converted)): 15.1 µM | GI50 (CCRF-CEM): 2.4 µM | CC50 (CCRF-CEM; [19]): 50.1 µM | TGI (CCRF-CEM; read-out: pTGI (converted)): 7.08 µM | GI50 (NCI-H460): 2.29 µM | CC50 (NCI-H460; [19]): 46.8 µM | TGI (NCI-H460; read-out: pTGI): 5.25 µM | inhibition in vivo at 40 mg/kg [10]: 34% | GI50 (A498): 2.24 µM | CC50 (A498; [19]): 25.1 µM | TGI (A498; read-out: pTGI (converted)): 6.76 µM | Activity (Mus musculus [11]): 104 mg | GI50 (Malme-3M): 5.89 µM | CC50 (Malme-3M; [19]): 50.1 µM | TGI (Malme-3M; read-out: pTGI (converted)): 20 µM | inhibition in vivo at 40 mg/kg [12]: 41% | GI50 ([13]; HCC 2998): 2.75 µM | CC50 ([13]; HCC 2998, read-out: pLC50 (the source's name) (converted)): 33.1 µM | TGI ([13]; HCC 2998, read-out: pTGI (converted)): 6.46 µM | GI50 (NCI-H226): 7.94 µM | CC50 (NCI-H226; [19]): 85.1 µM | TGI (NCI-H226; read-out: pTGI (converted)): 28.2 µM | GI50 (SW-620): 3.47 µM | CC50 (SW-620; [19]): 49 µM | TGI (SW-620; read-out: pTGI (converted)): 14.5 µM | ILS at 10 mg/kg (P388): -4% | GI50 (A549; A549): 3.09 µM | CC50 (A549; A549, read-out: pLC50 (converted)): > 100 µM | TGI (A549; A549, read-out: pTGI (converted)): 10.5 µM | inhibition in vivo at 40 mg/kg [14]: 52% | GI50 (SNB-75): 4.9 µM | CC50 (SNB-75; [19]): 63.1 µM | TGI (SNB-75; read-out: pTGI (converted)): 20.4 µM | GI50 (SNB-19): 11.5 µM | CC50 (SNB-19; [19]): 55 µM | TGI (SNB-19; read-out: pTGI (converted)): 25.1 µM | Activity (Mus musculus [15]): 0.6 mL | GI50 (SK-OV-3): 10.2 µM | CC50 (SK-OV-3; [19]): 47.9 µM | TGI (SK-OV-3; read-out: pTGI (converted)): 22.4 µM | inhibition in vivo at 40 mg/kg [16]: 34% | GI50 (ACHN): 3.31 µM | CC50 (ACHN; [19]): 32.4 µM | TGI (ACHN; read-out: pTGI (converted)): 10.5 µM | GI50 (HT-29): 2.69 µM | CC50 (HT-29; [19]): 52.5 µM | TGI (HT-29; read-out: pTGI (converted)): 7.94 µM | GI50 ([17]; COLO 205): 2.19 µM | CC50 ([17]; COLO 205, read-out: pLC50 (the source's name) (converted)): 8.51 µM | TGI ([17]; COLO 205, read-out: pTGI (converted)): 4.37 µM | GI50 (IGROV-1; IGROV-1): 4.57 µM | CC50 (IGROV-1; IGROV-1, read-out: pLC50 (converted)): > 100 µM | TGI (IGROV-1; IGROV-1, read-out: pTGI (converted)): 21.9 µM | GI50 (NCI-H23): 3.72 µM | CC50 (NCI-H23; [19]): 93.3 µM | TGI (NCI-H23; read-out: pTGI (converted)): 15.8 µM | Activity (Mus musculus [18]): 1.3 mL
